From patent publication US7951813B2, “Quinazolinone derivatives as ALDH-2 inhibitors” (Gilead Sciences, Inc., priority 2007, dated 2011)
“Also recorded” adds a separate entry of the source.

Assays:
hALDH2 = biological target: T1, hALDH2 (UniProt P05091); experiment: ALDH-2 assay (inhibition of hALDH2); assay type: biochemical, human
T1 sequence (P05091 1-517): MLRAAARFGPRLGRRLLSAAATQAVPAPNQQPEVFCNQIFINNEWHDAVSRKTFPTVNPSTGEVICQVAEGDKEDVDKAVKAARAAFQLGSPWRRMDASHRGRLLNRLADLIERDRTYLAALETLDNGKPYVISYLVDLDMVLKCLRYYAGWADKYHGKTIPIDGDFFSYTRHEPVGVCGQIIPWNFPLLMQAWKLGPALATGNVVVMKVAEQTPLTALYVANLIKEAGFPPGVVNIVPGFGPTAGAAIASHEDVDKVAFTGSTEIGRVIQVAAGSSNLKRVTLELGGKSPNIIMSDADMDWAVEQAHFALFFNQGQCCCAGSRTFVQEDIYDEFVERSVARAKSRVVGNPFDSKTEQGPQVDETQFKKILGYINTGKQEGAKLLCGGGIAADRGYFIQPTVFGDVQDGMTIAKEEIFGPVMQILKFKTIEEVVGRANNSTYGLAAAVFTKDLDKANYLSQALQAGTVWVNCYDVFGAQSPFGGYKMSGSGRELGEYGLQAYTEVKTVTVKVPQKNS

hMAO-A = biological target: T2, hMAO-A (UniProt P21397); experiment: MAO assay (inhibition of hMAO-A); assay type: biochemical, human; conditions: read-out: IC50 hMAO-A (No inhibition up to 10 μM)
T2 sequence (P21397 1-527): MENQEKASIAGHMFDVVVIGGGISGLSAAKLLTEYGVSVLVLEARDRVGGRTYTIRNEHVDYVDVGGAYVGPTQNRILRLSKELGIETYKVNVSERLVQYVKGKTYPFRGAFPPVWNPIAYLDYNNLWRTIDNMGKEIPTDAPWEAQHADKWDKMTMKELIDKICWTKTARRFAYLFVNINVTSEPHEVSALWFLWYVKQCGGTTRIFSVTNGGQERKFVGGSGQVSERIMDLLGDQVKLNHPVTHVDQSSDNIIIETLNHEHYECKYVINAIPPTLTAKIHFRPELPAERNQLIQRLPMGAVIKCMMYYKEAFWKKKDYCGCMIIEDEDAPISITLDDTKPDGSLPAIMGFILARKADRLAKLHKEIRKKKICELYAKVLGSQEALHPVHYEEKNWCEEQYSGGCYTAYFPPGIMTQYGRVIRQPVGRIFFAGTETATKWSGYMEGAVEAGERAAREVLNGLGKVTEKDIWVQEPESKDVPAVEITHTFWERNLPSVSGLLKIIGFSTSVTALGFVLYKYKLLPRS

hMAO-B = biological target: T3, hMAO-B (Homo sapiens, UniProt P27338); experiment: MAO assay (inhibition of hMAO-B); assay type: biochemical; conditions: read-out: IC50 hMAO-B (No inhibition up to 10 μM)
T3 sequence (P27338 2-520 limits assumed): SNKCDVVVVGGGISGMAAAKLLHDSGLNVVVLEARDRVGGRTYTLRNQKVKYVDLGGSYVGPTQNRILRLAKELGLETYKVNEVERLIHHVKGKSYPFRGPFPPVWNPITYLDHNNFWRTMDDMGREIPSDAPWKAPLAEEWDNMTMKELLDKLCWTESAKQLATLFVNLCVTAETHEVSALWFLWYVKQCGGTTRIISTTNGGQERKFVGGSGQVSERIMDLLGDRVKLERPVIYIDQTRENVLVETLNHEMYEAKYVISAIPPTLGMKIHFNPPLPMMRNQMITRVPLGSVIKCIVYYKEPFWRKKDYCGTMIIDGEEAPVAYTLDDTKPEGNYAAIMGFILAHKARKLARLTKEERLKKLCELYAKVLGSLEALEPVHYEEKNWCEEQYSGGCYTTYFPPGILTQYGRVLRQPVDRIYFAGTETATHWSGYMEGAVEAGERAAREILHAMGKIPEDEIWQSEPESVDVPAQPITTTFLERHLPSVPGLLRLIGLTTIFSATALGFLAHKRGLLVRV

Syrian golden hamsters = conditions: background statement, Keung and Vallee; U.S. Pat. Nos. 5,624,910 and 6,121,010; cited from earlier work
[1] = biological target: T4, human mitochondrial aldehyde dehydrogenase (ALDH-2) (Homo sapiens, UniProt P05091); conditions: background statement, U.S. Pat. Nos. 5,624,910 and 6,121,010; cited from earlier work
T4 sequence (P05091 18-517): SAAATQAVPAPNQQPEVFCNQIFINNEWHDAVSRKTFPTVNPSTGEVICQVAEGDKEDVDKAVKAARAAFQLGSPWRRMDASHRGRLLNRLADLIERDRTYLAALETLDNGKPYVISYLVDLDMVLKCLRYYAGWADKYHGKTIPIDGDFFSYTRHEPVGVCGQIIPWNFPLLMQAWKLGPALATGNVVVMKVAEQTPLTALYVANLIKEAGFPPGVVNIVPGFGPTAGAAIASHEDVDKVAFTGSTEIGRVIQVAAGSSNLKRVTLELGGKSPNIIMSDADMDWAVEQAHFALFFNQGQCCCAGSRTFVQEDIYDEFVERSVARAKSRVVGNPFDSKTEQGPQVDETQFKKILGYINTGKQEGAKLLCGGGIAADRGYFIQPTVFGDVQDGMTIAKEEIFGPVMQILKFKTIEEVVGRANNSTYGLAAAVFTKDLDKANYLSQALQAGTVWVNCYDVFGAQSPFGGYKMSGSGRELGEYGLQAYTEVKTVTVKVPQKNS

IC50 (hALDH2) [µM]	IC50 (hMAO-A) [µM]	IC50 (hMAO-B) [µM]	hALDH2 % inhibition (hALDH2; at 1 μM) [% inhibition at 1 μM]	SMILES	suppression of ethanol intake (Syrian golden hamsters)	inhibition of human mitochondrial ALDH-2 [1]
0.136	> 10	> 10		O=C(O)c1cccc(COc2ccc3c(=O)n(-c4ccc(O)cc4)cnc3c2)c1 [Example 3A, 3-{[3-(4-hydroxyphenyl)-4-oxo-3-hydroquinazolin-7-yloxy]methyl}benzoic acid]		
0.196	> 10	> 10		C=CCOC(=O)c1cccc(COc2ccc3c(=O)n(-c4ccc(O)cc4)cnc3c2)c1 [Example 2A, prop-2-enyl 3-{[3-(4-hydroxyphenyl)-4-oxo-3-hydroquinazolin-7-yloxy]methyl} benzoate]		
0.312	> 10	> 10		O=c1c2ccc(OCc3noc(-c4cc(C(F)(F)F)ccc4C(F)(F)F)n3)cc2ncn1-c1ccc(O)cc1 [7-({5-[2,5-bis(trifluoromethyl)phenyl](1,2,4-oxadiazol-3-yl)}methoxy)-3-(4-hydroxyphenyl)-3-hydroquinazolin-4-one]		
0.07	> 10	> 10		O=c1c2ccc(OCc3noc(-c4cc(C(F)(F)F)cc(C(F)(F)F)c4)n3)cc2ncn1-c1ccc(O)cc1 [7-({5-[3,5-bis(trifluoromethyl)phenyl](1,2,4-oxadiazol-3-yl)}methoxy)-3-(4-hydroxyphenyl)-3-hydroquinazolin-4-one]		
0.095	> 10	> 10		CC(C)OC(=O)c1cccc(COc2ccc3c(=O)n(-c4ccc(O)cc4)cnc3c2)c1 [methylethyl 3-{[3-(4-hydroxyphenyl)-4-oxo-3-hydroquinazolin-7-yloxy]methyl} benzoate]		
0.09	> 10	> 10		COc1ccccc1-c1nc(COc2ccc3c(=O)n(-c4ccc(O)cc4)cnc3c2)no1 [7-({5-[2-methoxyphenyl](1,2,4-oxadiazol-3-yl)}methoxy)-3-(4-hydroxyphenyl)-3-hydroquinazolin-4-one]		
0.07	> 10	> 10		O=c1c2ccc(OCc3noc(-c4cc(F)cc(C(F)(F)F)c4)n3)cc2ncn1-c1ccc(O)cc1 [7-({5-[5-fluoro-3-(trifluoromethyl)phenyl](1,2,4-oxadiazol-3-yl)}methoxy)-3-(4-hydroxyphenyl)-3-hydroquinazolin-4-one]		

Further lines, the molecule ahead of its results:

SMILES	IC50 (hALDH2) [µM]	IC50 (hMAO-A) [µM]	IC50 (hMAO-B) [µM]	hALDH2 % inhibition (hALDH2; at 1 μM) [% inhibition at 1 μM]	suppression of ethanol intake (Syrian golden hamsters)	inhibition of human mitochondrial ALDH-2 [1]
COc1ccc(-c2nc(COc3ccc4c(=O)n(-c5ccc(O)cc5)cnc4c3)no2)cc1C(F)(F)F [3-(4-hydroxyphenyl)-7-({5-[4-methoxy-3-(trifluoromethyl)phenyl](1,2,4-oxadiazol-3-yl)}methoxy)-3-hydroquinazolin-4-one]	0.1	> 10	> 10			
O=c1c(-c2ccc(O)cc2)coc2cc(O)ccc12 [daidzein]					effective in suppressing ethanol intake; also recorded: effective in suppressing ethanol uptake	
O=c1c(-c2ccc(O)cc2)coc2cc(O[C@@H]3O[C@H](CO)[C@@H](O)[C@H](O)[C@H]3O)ccc12 [Daidzin, daidzin]						potent and selective inhibitors
NC(=O)c1cccc(COc2ccc3c(=O)n(-c4ccc(O)cc4)cnc3c2)c1 [3-{[3-(4-hydroxyphenyl)-4-oxo-3-hydroquinazolin-7-yloxy]methyl}benzamide]	0.021	> 10	> 10			
N#Cc1cccc(-c2nc(COc3ccc4c(=O)n(-c5ccc(O)cc5)cnc4c3)no2)c1 [3-(3-{[3-(4-hydroxyphenyl)-4-oxo-3-hydroquinazolin-7-yloxy]methyl}-1,2,4-oxadiazol-5-yl)benzenecarbonitrile]		> 10	> 10	25		
N#Cc1cccc(COc2ccc3c(=O)n(-c4ccc(O)cc4)cnc3c2)c1 [3-{[3-(4-hydroxyphenyl)-4-oxo-3-hydroquinazolin-7-yloxy]methyl} benzenecarbonitrile]	0.196	> 10	> 10			
O=c1c2ccc(OCc3noc(-c4cccc(C(F)(F)F)c4)n3)cc2ncn1-c1ccc(O)cc1 [3-(4-hydroxyphenyl)-7-({5-[3-(trifluoromethyl)phenyl](1,2,4-oxadiazol-3-yl)}methoxy)-3-hydroquinazolin-4-one]	0.03	> 10	> 10			
O=c1c2ccc(OCc3noc(-c4ccccc4)n3)cc2ncn1-c1ccc(O)cc1 [3-(4-hydroxyphenyl)-7-[(5-phenyl(1,2,4-oxadiazol-3-yl))methoxy]-3-hydroquinazolin-4-one]	0.107	> 10	> 10			
